Source: publication PMC11820358 (Molecules, 2025)
Entries after “also recorded” stand apart in the source; their conditions may differ.

What was measured:
[1] = molecular target: T1, chymotrypsin (Bos taurus, UniProt P00766); assay: LC-MS analysis of enzymatic fragments and cleavage sites with chymotrypsin; type: in vitro ADME; design: purchased; conditions: LC-MS (ESI); HEPES 50 mM pH 7.4, 37 °C, peptide:protease 40:1
Method: To further investigate how glycosylation promotes the enzymatic digestion of D-amino acid-containing peptides, we analyzed the enzymatic cleavage sites of the glycosylated peptides using LC-MS (Figures S6–S14).
(β-D-GalNAc ) (H) in the presence of chymotrypsin. The peptides were dissolved in HEPES
Chymotrypsin was added to the above solution. In which the peptide: protease (ω: ω) = 40:1.
Incubation was performed at 37°C. Method of stopping enzymatic digestion after reaching
reaction time: Chymotrypsin is extinguished with 1% TFA. Each experiment was performed

[2] = molecular target: T2, Proteinase K (PROK) (Parengyodontium album, UniProt P06873); assay: Enzymatic degradation by Proteinase K (PROK), protease resistance; type: in vitro ADME; conditions: peptide 0.5 mg/mL in HEPES 50 mM pH 7.4 (600 μL) + PROK 1.5 mg/mL (15.0 μL); 50 °C; 0-8 h; quenched with 1% TFA; HPLC 215 nm; three times; Figure 4
T2 construct: purchased
Method: The peptides were dissolved in HEPES buffer (50 mM, pH = 7.4) to a final concentration of 0.5 mg/mL. Proteinase K (PROK) was prepared in deionized water at a final concentration of 1.5 mg/mL. The peptide solutions (600 μL) were then incubated with PROK solution (15.0 μL) at 50 °C. At 0, 0.5, 1.0, 2.0, 4.0, and 8.0 h intervals, 100 μL of the digestion mixture was taken and quenched with 100 μL of 1% TFA in water. The enzymatic hydrolysis of peptides was monitored by HPLC at 215 nm. Each experiment was performed three times.

[3] = tested on: chymotrypsin; assay: chymotrypsin in HEPES buffer solution (50 mM, pH = 7.4); conditions: 37 °C, up to 8 h
[4] = molecular target: T1, chymotrypsin; assay: Enzymatic degradation by chymotrypsin, substrate decay followed by HPLC; conditions: 37 °C; for Substrate decay rate constant in the presence of chymotrypsin: peptide 0.5 mg/mL in HEPES 50 mM pH 7.4, chymotrypsin 0.5 mg/mL, peptide:protease 40:1 (w/w), stopped with 1% TFA, HPLC-UV 215 nm, fit y=A0×exp(−k1×x), each experiment three times, Figure 7; for Enzymatic degradation by chymotrypsin, compared with 5-t: peptide 0.5 mg/mL, HEPES 50 mM pH 7.4, chymotrypsin 0.5 mg/mL, 40:1 (w/w), up to 8 h, HPLC, three times, Figures 5C, 6
[5] = tested on: pepsin; assay: pepsin in HEPES buffer (50 mM, pH=7.4); conditions: 37 °C, up to 8 h
[6] = tested on: papain; assay: papain in HEPES buffer (50 mM, pH=7.4); conditions: 37 °C, up to 8 h
[7] = RP-HPLC retention time of peptides (hydrophobicity/polarity); type: physicochemical; conditions: chromatographic, C18 reversed phase, 0.1% TFA water/acetonitrile, gradient 10-50% solvent B over 30 min, 1 mL/min, UV; used as measure of hydrophobicity/polarity; Figure 3D
Method: Purification was performed on a ZORBAX Eclipse XDB-C18 reversed-phase column (5 μm, 9.4 × 250 mm, Agilent, Santa Clara, CA, USA) using solvent A (0.1% TFA in water) and solvent B (0.1% TFA in acetonitrile). Elution was performed at a flow rate of 1 mL/min with a gradient of 10–50% solvent B over 30 min, and detection was carried out using a UV detector at 220 nm. All purified peptide samples were freeze-dried to yield a white powder.

T2 sequence (P06873 106-384): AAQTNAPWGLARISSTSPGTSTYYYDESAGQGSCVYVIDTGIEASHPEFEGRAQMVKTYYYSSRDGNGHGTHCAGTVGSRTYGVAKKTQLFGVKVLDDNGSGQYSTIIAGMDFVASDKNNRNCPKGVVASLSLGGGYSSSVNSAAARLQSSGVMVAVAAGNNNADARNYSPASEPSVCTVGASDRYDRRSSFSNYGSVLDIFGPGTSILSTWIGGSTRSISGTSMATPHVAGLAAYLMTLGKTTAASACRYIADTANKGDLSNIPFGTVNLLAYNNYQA

Substance | Cleavage sites in the presence of chymotrypsin [1] | Enzymatic fragments in the presence of chymotrypsin [1] | cleaved bond [3] | also measured
KYNE(t-β-D-Glc)WRSED [5-t-(β-D-Glc)] | Tyr2-Asn3, Arg7-Ser8 | KY, NE-(t-β-D-Glc)-WR, NE-(t-β-D-Glc)-WRSED, SED | – | Enzymatic degradation by PROK, substrate decay curves compared [2]: nearly identical
KYNE(t-β-D-Rib)WRSED | – | – | Tyr2-Asn3; also recorded: Arg7-Ser8 | –
KYNE(t-β-L-Rib)WRSED [5-t-(β-L-Rib), 5-t glycosylated with β-L-Ribose at Thr5] | Tyr2-Asn3, Arg7-Ser8 | KY, KYNE(t-β-L-Rib)-WR, NE-(t-β-L-Rib)-WR, NE-(t-β-L-Rib)-WRSED, SED | – | Substrate decay rate constant in the presence of chymotrypsin [4]: 0.144 h⁻¹; Enzymatic degradation by chymotrypsin, compared with 5-t [4]: digested more efficiently than 5-t; Enzymatic degradation by PROK, substrate decay curves compared [2]: more pronounced inhibitory effect on peptide enzymatic degradation compared to D-ribose
KYNE(t-α-D-Glc)WRSED [5-t-(α-D-Glc)] | Tyr2-Asn3, Arg7-Ser8 | KY, NE-(t-α-D-Glc)-WR, NE-(t-α-D-Glc)-WRSED, SED | – | –
KTNE(t-β-D-Gal-NAc)WRSED | – | – | Arg7-Ser8 | –
KYNEtWR(S-β-D-Glc)ED [5-t-(S-β-D-Glc)] | Tyr2-Asn3, Arg7-Ser8 | KY, KYNE-t-WR, NE-t-WR, NE-t-WR-(S-β-D-Glc)-ED, (S-β-D-Glc)-ED | – | Enzymatic degradation by PROK, substrate decay curves compared [2]: higher than that of 5-t-(β-D-Glc)
KYNEtWRSED [5-t, template peptide KYNEtWRSED containing D-Thr at position five] | Tyr2-Asn3, Arg7-Ser8 | KY, NE-t-WR, NE-t-WRSED, SED | – | Substrate decay rate constant in the presence of chymotrypsin [4]: 0.103 h⁻¹
KYNE(t-β-D-Gal)WRSED | – | – | Tyr2-Asn3; also recorded: Arg7-Ser8 | –
KYNE(t-α-D-Glc)WRSED | – | – | Arg7-Ser8; also recorded: Tyr2-Asn3 | –
KYNE(t-β-D-Gal)WRSED [5-t-(β-D-Gal)] | Tyr2-Asn3, Arg7-Ser8 | KY, NE-(t-β-D-Gal)-WR, NE-(t-β-D-Gal)-WRSED, SED | – | –
KYNE(t-β-D-Glc)WR(S-β-D-Glc)ED | – | – | Tyr2-Asn3; also recorded: Arg7-Ser8 | –
KYNEtWR(S-β-D-Glc)ED | – | – | Tyr2-Asn3; also recorded: Arg7-Ser8 | –
KYNEtWRSED | – | – | Tyr2-Asn3; also recorded: Arg7-Ser8 | not cleaved [5]: no enzymatic degradation; substrate molar fraction 1.0 at 8 h; not cleaved [6]: no enzymatic degradation; substrate molar fraction 1.0 at 8 h
KYNE(t-β-D-Rib)WRSED [5-t-(β-D-Rib), 5-t glycosylated with β-D-Ribose at Thr5] | Tyr2-Asn3, Arg7-Ser8 | KY, KYNE-(t-β-D-Rib)-WR, NE-(t-β-D-Rib)-WR, NE-(t-β-D-Rib)-WRSED, SED | – | Substrate decay rate constant in the presence of chymotrypsin [4]: 0.187 h⁻¹; Enzymatic degradation by chymotrypsin, compared with 5-t [4]: digested more efficiently than 5-t
KYNE(t-β-L-Rib)WRSED | – | – | Tyr2-Asn3; also recorded: Arg7-Ser8 | –
KTNE(t-β-D-Gal-NAc)WRSED [5-t-(β-D-GalNAc), 5-t glycosylated with β-D-acetyl-Galactosamine at Thr5] | Tyr2-Asn3, Arg7-Ser8 | KY, NE-(t-β-D-GalNAc)-WR, NE-(t-β-D-Gal-NAc)-WRSED, SED | – | Substrate decay rate constant in the presence of chymotrypsin [4]: 0.106 h⁻¹
KYNE(t-β-D-Glc-Ac4)WRSED [5-t-(β-D-Glc-Ac4)] | – | – | – | Retention time in RP-HPLC [7]: 21.481 min
KYNE(t-β-D-Glc)WRSED | – | – | Tyr2-Asn3; also recorded: Arg7-Ser8 | not cleaved [5]: no enzymatic degradation; substrate molar fraction 1.0 at 8 h; not cleaved [6]: no enzymatic degradation; substrate molar fraction 1.0 at 8 h
